{"source": "paper PMC8945229", "about": "“Development and Biological Characterization of a Novel Selective TrkA Agonist with Neuroprotective Properties against Amyloid Toxicity” (Biomedicines, 2022)", "format_in_all_cases": "cell-based", "key": {"p75^NTR": {"target": "T1, p75^NTR (Homo sapiens, UniProt P08138)", "T1 construct": "expressed in transfected cells; host or cells: HEK293T (transient, lipofectamine)", "T1 sequence (P08138 29-427)": "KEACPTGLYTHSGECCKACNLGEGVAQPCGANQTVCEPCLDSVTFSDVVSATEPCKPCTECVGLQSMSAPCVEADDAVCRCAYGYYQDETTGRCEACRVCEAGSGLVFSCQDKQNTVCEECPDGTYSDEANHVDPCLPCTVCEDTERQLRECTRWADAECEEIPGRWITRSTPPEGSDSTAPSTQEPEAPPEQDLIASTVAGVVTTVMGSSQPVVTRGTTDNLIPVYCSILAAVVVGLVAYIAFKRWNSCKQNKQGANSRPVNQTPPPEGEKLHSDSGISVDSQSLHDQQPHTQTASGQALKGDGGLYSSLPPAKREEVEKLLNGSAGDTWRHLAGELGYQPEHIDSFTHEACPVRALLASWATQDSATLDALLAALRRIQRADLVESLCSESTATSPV", "assay": "p75NTR activation in HEK cells transfected with p75NTR and Traf6 (immunoprecipitation)", "settings": "500 nM, 30′", "experimental": "PC12 and HEK293T cells were obtained from LGC Promochem GmbH (Teddington, UK) and cultured under the conditions specified by the manufacturer. NIH3T3 cells were stably transfected with human TrkB plasmid. PC12 cells were grown in DMEM medium (11965084, Gibco, Grand Island, NY, USA) containing 10% Horse Serum (16050122, Gibco, Grand Island, NY, USA), 5% Fetal Bovine Serum (10270106, Gibco, Grand Island, NY, USA), 100 units/mL Penicillin and 0.1 mg/mL Streptomycin (15140122, Gibco, Grand Island, NY, USA) at 5% CO2 and 37 °C. Cells were used between passages 5–20. HEK293T and NIH3T3 cells were grown in the same medium as PC12 cells supplemented with 10% Fetal Bovine Serum and lacking Horse Serum. For transient transfection of HEK293T cells, lipofectamine was used and cells were transfected with human p75^NTR and Traf6 plasmids. To determine the intracellular activity of endogenous secretases, we tagged (tGFP) a truncated mutant (Tm) of APP containing the original amino acids sequence from M516 to N773. This Tm conserves the secretases cleavage sites, clathrin binding site, tau protein binding site, collagen binding site and some glycosylation sites critical for protein localization and intracellular trafficking. The cDNA of the TmAPP gene was amplified by PCR and subcloned into pturbo-GFP vector. […]"}, "PC12 cells": {"system": "PC12 cells", "assay": "CellTox assay, serum deprivation-induced cell death", "experimental": "CellTox assay (G8742, Promega Corporation, Maddison, WI, USA) was used to assess survival of PC12 cells under serum deprivation conditions. PC12 cells were plated in 96-well plates, starved of serum for 4 h and subsequently treated with NGF (100 ng/mL) or ENT-A013 (500 nM) in the presence or absence of TrkA inhibitor GW441756 (20 μM, G-190, Alomone labs, Jerusalem, Israel) for 24 h. CellTox assay reagents and Hoescht (1:10,000, H3570, Invitrogen, Waltham, MA, USA) were added to each well for 30′ and cells were then imaged with a Zeiss AXIO Vert A1 fluorescent microscope (Zeiss, Jena, Germany). CellTox positive cells were normalized to total number of cells for each image."}, "Akt and Erk1/2": {"system": "Akt and Erk1/2", "assay": "Akt and Erk1/2 phosphorylation in NIH-3T3 cells transfected with TrkB or TrkC", "settings": "500 nM, 30′", "experimental": "cells were stably transfected with TrkB and treated with ENT-A013 (500nM) or BDNF (500ng/ml) for 30’ and then subjected to Western Blot against phosphorylated TrkB and […]\neither TrkB or Akt by ENT-A013. (C) NIH-3T3 cells were stably transfected with TrkC and (1 picture or pasted object on this page, not shown here) […]\ntreated with ENT-A013 (500nM) or Neurotrophin-3 (100ng/ml) for 30’ and then subjected to Western Blot against phosphorylated TrkC, Akt and Erk1/2. […]\nphosphorylated any of those. (D) CellTox assay was performed in NIH-3T3-TrkB cells that were starved from serum and treated with ENT-A013 or BDNF for 24hrs. Quantification (E) […]\nnegative control (Serum Free).\nSupplementary Figure S3: Primary DRG neurons were cultured in the presence of ENT-A013 (500nM, supplemented every 48hrs) and a neutralizing antibody against NGF for 5 days and then neurite length was measured by immunostaining against Tuj1 .\nSupplementary Figure S4: Primary hippocampal neurons at 14-16 DIV were treated with oligomeric Aβ and in the presence of ENT-A013 (500nM, supplemented every 24hrs) for 48hrs and then were subjected to Western Blot against phosphorylated JNK. A representative blot […]"}}}
{"compound": "CC12CCC(O)CC1=CCC1C2CCC2(C)C1CCC21CC1C=CBr", "note": "[ENT-A013, (2′R,3S,17S)-2′-(2-Bromovinyl)-5-Androstene-17,1′-Cyclopropan-3-ol]", "values": [{"measurement": "p75NTR activation (in words)", "setting": "p75^NTR", "result": "does not activate"}, {"measurement": "IC50", "setting": "PC12 cells; Rattus norvegicus, PC-12, serum deprivation, CellTox, read-out: IC50 (anti-apoptotic dose–response)", "result": 167, "unit": "nM"}, {"measurement": "CellTox positive cells normalized to total number of cells", "setting": "PC12 cells; serum deprivation, 24 h, 500 nM", "result": "0.11 ± 0.01"}, {"measurement": "Akt phosphorylation (in words)", "setting": "Akt and Erk1/2; NIH-3T3 TrkB cells", "result": "no significant difference in the phosphorylation"}, {"measurement": "Akt and Erk1/2 phosphorylation (in words)", "setting": "Akt and Erk1/2; NIH-3T3 TrkC cells", "result": "failed to"}]}
